{"source": "patent US7097988B1", "about": "(ADVANCED RESEARCH AND TECHNOLOGY INSTITUTE, dated 2006)", "key": {"[1]": {"target": "T1, μ-opioid receptor encoded by MOR-1 (inhibition of adenylyl cyclase) (Rattus norvegicus, UniProt P33535, V245I)", "T1 construct": "A 1.4-kilobase HindIII fragment encompassing the open reading frame from the cDNA encoding MOR-1 was cloned; expressed in transfected cells; host or cells: COS-7", "T1 sequence (P33535 whole entry V245I, the tested form may be a part)": "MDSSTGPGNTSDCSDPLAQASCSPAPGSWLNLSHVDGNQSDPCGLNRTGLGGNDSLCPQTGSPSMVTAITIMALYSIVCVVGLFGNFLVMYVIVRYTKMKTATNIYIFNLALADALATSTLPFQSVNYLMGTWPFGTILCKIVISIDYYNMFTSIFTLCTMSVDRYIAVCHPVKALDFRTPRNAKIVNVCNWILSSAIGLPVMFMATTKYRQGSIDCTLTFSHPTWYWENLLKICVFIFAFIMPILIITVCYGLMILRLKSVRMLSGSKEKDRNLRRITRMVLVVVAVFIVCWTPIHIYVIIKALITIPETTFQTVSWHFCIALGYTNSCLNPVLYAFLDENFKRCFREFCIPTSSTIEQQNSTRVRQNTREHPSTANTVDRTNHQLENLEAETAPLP", "test": "Forskolin-stimulated cAMP levels in COS-7 cells expressing MOR-1", "assay_type": "cell-based", "settings": "100 nM DAGO, 10 μM forskolin, transfected cells, p<0.05"}, "[2]": {"target": "T2, mu opioid receptor (Rattus norvegicus, UniProt P33535, V245I)", "T2 construct": "expressed in transfected cells", "T2 sequence (P33535 whole entry V245I)": "as the sequence (P33535 whole entry V245I, the tested form may be a part) above", "assay_type": "biochemical", "settings": "10 μM DAMGO"}, "[3]": {"target": "T3, human μ opioid receptor coupled to G protein-activated K+ channel (Homo sapiens, UniProt P35372)", "T3 construct": "Messenger RNAs encoding both proteins (Chen and Yu, 1994) were generated by in vitro transcription and injected into Xenopus oocytes; expressed in transfected cells; host or cells: Xenopus laevis oocytes (mRNA injection)", "assay_type": "cell-based"}, "[4]": {"target": "T4, rat μ opioid receptor (Rattus norvegicus, UniProt P33535, V245I)", "T4 construct": "A plasmid containing a 1.4 kb cDNA for the rat μ opioid receptor in a mammalian expression vector pRc/CMV has been described; expressed in transfected cells", "T4 sequence (P33535 whole entry V245I)": "as the sequence (P33535 whole entry V245I, the tested form may be a part) above", "test": "Saturation binding of [3H]DAMGO, membranes of CHO cells stably expressing rat μ opioid receptor (Example VII)"}, "[5]": {"target": "T5, rat μ opioid receptor coupled to G protein-activated K+ channel (Rattus norvegicus, UniProt P33535, V245I)", "T5 construct": "A cDNA clone, MOR-1, containing the protein coding region of a rat μ opioid receptor has been described; expressed in transfected cells; host or cells: Xenopus oocytes (mRNA injection)", "T5 sequence (P33535 whole entry V245I)": "as the sequence (P33535 whole entry V245I, the tested form may be a part) above", "assay_type": "cell-based"}, "[6]": {"target": "T6, novel member of the opioid receptor gene family (SEQ ID NO: 17) (Rattus norvegicus, UniProt P35370)", "T6 construct": "mRNA of this clone was synthesized by in vitro transcription and coinjected into Xenopus oocytes; expressed in transfected cells; host or cells: Xenopus oocytes (mRNA injection)", "assay_type": "cell-based"}, "[7]": {"target": "T7, mu opioid receptor / voltage-activated calcium channel (Rattus norvegicus, UniProt P33535, V245I)", "T7 construct": "one cDNA clone contained an open reading frame of 1194 bp, encoding a protein of 398 amino acids; expressed in transfected cells; host or cells: Xenopus oocytes (plasmid microinjection)", "T7 sequence (P33535 whole entry V245I)": "as the sequence (P33535 whole entry V245I, the tested form may be a part) above", "test": "Barium currents in Xenopus oocytes coexpressing voltage-activated calcium channel and mu opioid receptor", "assay_type": "cell-based", "settings": "1 μM DAMGO for 5 min, entire activation voltage range"}, "[8]": {"target": "human μ opioid receptor (Homo sapiens, UniProt P35372)", "sequence (P35372 whole entry)": "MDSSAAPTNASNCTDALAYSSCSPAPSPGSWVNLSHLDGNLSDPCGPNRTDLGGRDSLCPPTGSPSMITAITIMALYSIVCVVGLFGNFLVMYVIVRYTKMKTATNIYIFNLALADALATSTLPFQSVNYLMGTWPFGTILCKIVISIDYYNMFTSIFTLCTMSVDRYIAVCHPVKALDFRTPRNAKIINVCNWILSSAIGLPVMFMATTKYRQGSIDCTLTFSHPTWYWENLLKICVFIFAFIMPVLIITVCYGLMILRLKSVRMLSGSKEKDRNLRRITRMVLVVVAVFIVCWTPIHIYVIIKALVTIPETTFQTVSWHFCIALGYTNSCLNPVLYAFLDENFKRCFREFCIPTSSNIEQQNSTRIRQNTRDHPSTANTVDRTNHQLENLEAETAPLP"}, "[9]": {"target": "T8, rat μ opioid receptor (inhibition of adenylyl cyclase) (Rattus norvegicus, UniProt P33535, V245I)", "T8 sequence (P33535 whole entry V245I)": "as the sequence (P33535 whole entry V245I, the tested form may be a part) above"}, "[10]": {"target": "cloned rat μ receptor (Rattus norvegicus, UniProt P33535, V245I)", "sequence (P33535 whole entry V245I)": "as the sequence (P33535 whole entry V245I, the tested form may be a part) above", "settings": "previously reported; cited from earlier work"}, "[11]": {"target": "T8, rat μ opioid receptor (inhibition of adenylyl cyclase)", "test": "Cyclic AMP assay in transfected CHO cells, naive or chronically morphine-treated", "settings": "for DAMGO/control (forskolin + DAMGO vs forskolin only cAMP): 1 μM DAMGO, 2 μM forskolin; for Intracellular cAMP level, Forskolin + DAMGO: forskolin 2 μM, DAMGO 1 μM"}, "[12]": {"target": "cloned human μ receptor (Homo sapiens, UniProt P35372)", "sequence (P35372 whole entry)": "as the sequence (P35372 whole entry) above", "test": "Saturation binding of [3H]DAMGO, COS-7 membranes expressing cloned human μ receptor (Example XII)", "set-up": "the cDNA containing the open reading frame of the receptor was cloned downstream of the human cytomegalovirus promoter in the mammalian expression vector pcDNA3; expressed in transfected cells; host or cells: COS-7 (transient)"}, "[13]": {"settings": "cells treated with 1 μM morphine for 24 hours"}}, "data": [{"smiles": "C[C@@H](NC(=O)[C@@H](N)Cc1ccc(O)cc1)C(=O)NCC(=O)N(C)[C@@H](Cc1ccccc1)C(=O)NCCO", "note": "[DAMGO, [D-Ala^2, N-Me-Phe^4, Gly-ol^5]-enkephalin]", "values": [{"measurement": "reduction of cAMP levels from control", "setting": "[1]", "result": "18.1±2.5", "unit": "%"}, {"measurement": "increase of GTPase activity", "setting": "[2]", "result": 30, "unit": "%"}, {"measurement": "membrane current upon receptor activation (in words)", "setting": "[3]", "result": "an inward current was observed"}, {"measurement": "Bmax", "setting": "[4]", "result": "~630", "unit": "fmol/mg membrane protein"}, {"measurement": "membrane current upon DAMGO exposure (in words)", "setting": "[5]", "result": "produced an inward membrane current"}, {"measurement": "induction of potassium conductance (in words)", "setting": "[6]", "result": "no potassium conductance was induced"}, {"measurement": "reduction in barium currents through the calcium channel", "setting": "[7]", "result": "over 80%"}, {"measurement": "Bmax", "setting": "[8]", "result": "381±25 fmol/mg of membrane protein"}, {"measurement": "inhibition", "setting": "[9]", "result": "~60", "unit": "%"}, {"measurement": "Bmax", "setting": "[10]", "result": 444, "unit": "fmol/mg protein"}, {"measurement": "effect on intracellular cAMP level in non-transfected parental CHO cells", "setting": "[11]", "result": "had no effect"}, {"measurement": "DAMGO/control (forskolin + DAMGO vs forskolin only cAMP)", "setting": "[11]; [13]", "result": 42.4, "unit": "%"}, {"measurement": "Intracellular cAMP level, Forskolin + DAMGO", "setting": "[11]; [13]", "result": "38.9 ± 1.4", "unit": "fmol/1 × 10^3 cells"}, {"measurement": "DAMGO/control (forskolin + DAMGO vs forskolin only cAMP)", "setting": "[11]; naive cells", "result": 71.9, "unit": "%"}, {"measurement": "Intracellular cAMP level, Forskolin + DAMGO", "setting": "[11]; naive cells", "result": "25.6 ± 0.3", "unit": "fmol/1 × 10^3 cells"}, {"measurement": "Bmax", "setting": "[12]", "result": 232, "unit": "fmol/mg"}]}]}
